# Source: ChEMBL document CHEMBL1156542, “Facile radiosynthesis of fluorine-18 labeled beta-blockers. Synthesis, radiolabeling, and ex vivo biodistribution of [18F]-(2S and 2R)-1-(1-fluoropropan-2-ylamino)-3-(m-tolyloxy)propan-2-ol” (J Med Chem, 2008)
# Experiments:
# [1] = Lipophilicity, log P at pH 7.4; assay type: physicochemical; conditions: buffer
# [2] = tested on: Cerebellum; test: Biodistribution in Sprague-Dawley rat cerebellum at 70 uCi, iv after 5 mins; assay type: ADME, organism-based; conditions: in vivo
# [3] = tested on: Hippocampus; test: Biodistribution in Sprague-Dawley rat hippocampus at 70 uCi, iv after 5 mins; assay type: ADME, organism-based; conditions: in vivo
# [4] = tested on: Striatum; test: Biodistribution in Sprague-Dawley rat striatum at 70 uCi, iv after 5 mins; assay type: ADME, organism-based; conditions: in vivo
# [5] = Biodistribution in Sprague-Dawley rat frontal cortex at 70 uCi, iv after 5 mins; assay type: ADME, organism-based; conditions: in vivo
# [6] = tested on: Cortex; test: Biodistribution in Sprague-Dawley rat rest of cortex at 70 uCi, iv after 5 mins; assay type: ADME, organism-based; conditions: in vivo
# [7] = tested on: Thalamus; test: Biodistribution in Sprague-Dawley rat thalamus at 70 uCi, iv after 5 mins; assay type: ADME, organism-based; conditions: in vivo
# [8] = tested on: Hypothalamus; test: Biodistribution in Sprague-Dawley rat hypothalamus at 70 uCi, iv after 5 mins; assay type: ADME, organism-based; conditions: in vivo
# [9] = tested on: Brain; test: Biodistribution in Sprague-Dawley rat rest of brain at 70 uCi, iv after 5 mins; assay type: ADME, organism-based; conditions: in vivo
# [10] = tested on: Heart; test: Biodistribution in Sprague-Dawley rat heart at 70 uCi, iv after 5 mins; assay type: ADME, organism-based; conditions: in vivo
# [11] = tested on: Bone; test: Biodistribution in Sprague-Dawley rat bone at 70 uCi, iv after 5 mins; assay type: ADME, organism-based, Bone element; conditions: in vivo
# [12] = tested on: Plasma; test: Biodistribution in Sprague-Dawley rat plasma at 70 uCi, iv after 5 mins; assay type: ADME, organism-based; conditions: in vivo
# [13] = Metabolic stability in Sprague-Dawley rat plasma at 70 uCi, iv after 5 mins; assay type: ADME, organism-based; conditions: read-out: Stability
# [14] = Metabolic stability in Sprague-Dawley rat plasma at 70 uCi, iv after 15 mins; assay type: ADME, organism-based; conditions: read-out: Stability
# [15] = Metabolic stability in Sprague-Dawley rat plasma at 70 uCi, iv after 30 mins; assay type: ADME, organism-based; conditions: read-out: Stability
# [16] = Metabolic stability in Sprague-Dawley rat plasma at 70 uCi, iv after 60 mins; assay type: ADME, organism-based; conditions: read-out: Stability
# [17] = tested on: Cerebellum; test: Biodistribution in Sprague-Dawley rat cerebellum at 70 uCi, iv after 15 mins; assay type: ADME, organism-based; conditions: in vivo, 0.25 h
# [18] = tested on: Hippocampus; test: Biodistribution in Sprague-Dawley rat hippocampus at 70 uCi, iv after 15 mins; assay type: ADME, organism-based; conditions: in vivo, 0.25 h
# [19] = tested on: Heart; test: Biodistribution in Sprague-Dawley rat heart at 70 uCi, iv after 15 mins; assay type: ADME, organism-based; conditions: in vivo, 0.25 h
# [20] = tested on: Striatum; test: Biodistribution in Sprague-Dawley rat striatum at 70 uCi, iv after 15 mins; assay type: ADME, organism-based; conditions: in vivo, 0.25 h
# [21] = Biodistribution in Sprague-Dawley rat frontal cortex at 70 uCi, iv after 15 mins; assay type: ADME, organism-based; conditions: in vivo, 0.25 h
# [22] = tested on: Cortex; test: Biodistribution in Sprague-Dawley rat rest of cortex at 70 uCi, iv after 15 mins; assay type: ADME, organism-based; conditions: in vivo, 0.25 h
# [23] = tested on: Thalamus; test: Biodistribution in Sprague-Dawley rat thalamus at 70 uCi, iv after 15 mins; assay type: ADME, organism-based; conditions: in vivo, 0.25 h
# [24] = tested on: Hypothalamus; test: Biodistribution in Sprague-Dawley rat hypothalamus at 70 uCi, iv after 15 mins; assay type: ADME, organism-based; conditions: in vivo, 0.25 h
# [25] = tested on: Brain; test: Biodistribution in Sprague-Dawley rat rest of brain at 70 uCi, iv after 15 mins; assay type: ADME, organism-based; conditions: in vivo, 0.25 h
# [26] = tested on: Bone; test: Biodistribution in Sprague-Dawley rat bone at 70 uCi, iv after 15 mins; assay type: ADME, organism-based, Bone element; conditions: in vivo, 0.25 h
# [27] = tested on: Plasma; test: Biodistribution in Sprague-Dawley rat plasma at 70 uCi, iv after 15 mins; assay type: ADME, organism-based; conditions: in vivo, 0.25 h
# [28] = tested on: Cerebellum; test: Biodistribution in Sprague-Dawley rat cerebellum at 70 uCi, iv after 30 mins; assay type: ADME, organism-based; conditions: in vivo, 0.5 h
# [29] = tested on: Hippocampus; test: Biodistribution in Sprague-Dawley rat hippocampus at 70 uCi, iv after 30 mins; assay type: ADME, organism-based; conditions: in vivo, 0.5 h
# [30] = tested on: Striatum; test: Biodistribution in Sprague-Dawley rat striatum at 70 uCi, iv after 30 mins; assay type: ADME, organism-based; conditions: in vivo, 0.5 h
# [31] = Biodistribution in Sprague-Dawley rat frontal cortex at 70 uCi, iv after 30 mins; assay type: ADME, organism-based; conditions: in vivo, 0.5 h
# [32] = tested on: Cortex; test: Biodistribution in Sprague-Dawley rat rest of cortex at 70 uCi, iv after 30 mins; assay type: ADME, organism-based; conditions: in vivo, 0.5 h
# [33] = tested on: Thalamus; test: Biodistribution in Sprague-Dawley rat thalamus at 70 uCi, iv after 30 mins; assay type: ADME, organism-based; conditions: in vivo, 0.5 h
# [34] = tested on: Hypothalamus; test: Biodistribution in Sprague-Dawley rat hypothalamus at 70 uCi, iv after 30 mins; assay type: ADME, organism-based; conditions: in vivo, 0.5 h
# [35] = tested on: Brain; test: Biodistribution in Sprague-Dawley rat rest of brain at 70 uCi, iv after 30 mins; assay type: ADME, organism-based; conditions: in vivo, 0.5 h
# [36] = tested on: Heart; test: Biodistribution in Sprague-Dawley rat heart at 70 uCi, iv after 30 mins; assay type: ADME, organism-based; conditions: in vivo, 0.5 h
# [37] = tested on: Bone; test: Biodistribution in Sprague-Dawley rat bone at 70 uCi, iv after 30 mins; assay type: ADME, organism-based, Bone element; conditions: in vivo, 0.5 h
# [38] = tested on: Plasma; test: Biodistribution in Sprague-Dawley rat plasma at 70 uCi, iv after 30 mins; assay type: ADME, organism-based; conditions: in vivo, 0.5 h
# [39] = tested on: Cerebellum; test: Biodistribution in Sprague-Dawley rat cerebellum at 70 uCi, iv after 60 mins; assay type: ADME, organism-based; conditions: in vivo, 1 h
# [40] = tested on: Hippocampus; test: Biodistribution in Sprague-Dawley rat hippocampus at 70 uCi, iv after 60 mins; assay type: ADME, organism-based; conditions: in vivo, 1 h
# [41] = tested on: Striatum; test: Biodistribution in Sprague-Dawley rat striatum at 70 uCi, iv after 60 mins; assay type: ADME, organism-based; conditions: in vivo, 1 h
# [42] = Biodistribution in Sprague-Dawley rat frontal cortex at 70 uCi, iv after 60 mins; assay type: ADME, organism-based; conditions: in vivo, 1 h
# [43] = tested on: Cortex; test: Biodistribution in Sprague-Dawley rat rest of cortex at 70 uCi, iv after 60 mins; assay type: ADME, organism-based; conditions: in vivo, 1 h
# [44] = tested on: Thalamus; test: Biodistribution in Sprague-Dawley rat thalamus at 70 uCi, iv after 60 mins; assay type: ADME, organism-based; conditions: in vivo, 1 h
# [45] = tested on: Hypothalamus; test: Biodistribution in Sprague-Dawley rat hypothalamus at 70 uCi, iv after 60 mins; assay type: ADME, organism-based; conditions: in vivo, 1 h
# [46] = tested on: Brain; test: Biodistribution in Sprague-Dawley rat rest of brain at 70 uCi, iv after 60 mins; assay type: ADME, organism-based; conditions: in vivo, 1 h
# [47] = tested on: Heart; test: Biodistribution in Sprague-Dawley rat heart at 70 uCi, iv after 60 mins; assay type: ADME, organism-based; conditions: in vivo, 1 h
# [48] = tested on: Bone; test: Biodistribution in Sprague-Dawley rat bone at 70 uCi, iv after 60 mins; assay type: ADME, organism-based, Bone element; conditions: in vivo, 1 h
# [49] = tested on: Plasma; test: Biodistribution in Sprague-Dawley rat plasma at 70 uCi, iv after 60 mins; assay type: ADME, organism-based; conditions: in vivo, 1 h
# [50] = biological target: Beta-1 adrenergic receptor (Homo sapiens, UniProt P08588); test: Binding affinity to beta-1 adrenergic receptor
# Sequence of Beta-1 adrenergic receptor (P08588 whole entry): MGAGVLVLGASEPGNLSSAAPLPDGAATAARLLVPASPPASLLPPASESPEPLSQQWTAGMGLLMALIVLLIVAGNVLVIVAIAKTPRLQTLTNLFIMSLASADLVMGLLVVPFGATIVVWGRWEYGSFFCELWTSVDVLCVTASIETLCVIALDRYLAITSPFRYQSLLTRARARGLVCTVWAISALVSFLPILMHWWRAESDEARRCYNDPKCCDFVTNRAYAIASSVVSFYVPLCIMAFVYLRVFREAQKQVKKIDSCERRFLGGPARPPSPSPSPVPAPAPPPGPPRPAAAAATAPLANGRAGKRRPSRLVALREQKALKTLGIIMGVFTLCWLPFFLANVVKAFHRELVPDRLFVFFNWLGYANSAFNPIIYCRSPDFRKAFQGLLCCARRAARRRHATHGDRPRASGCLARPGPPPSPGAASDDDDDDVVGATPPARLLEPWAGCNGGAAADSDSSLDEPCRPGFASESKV
# [51] = biological target: Beta-2 adrenergic receptor (Homo sapiens, UniProt P07550); test: Binding affinity to beta2 adrenergic receptor
# Sequence of Beta-2 adrenergic receptor (P07550 whole entry): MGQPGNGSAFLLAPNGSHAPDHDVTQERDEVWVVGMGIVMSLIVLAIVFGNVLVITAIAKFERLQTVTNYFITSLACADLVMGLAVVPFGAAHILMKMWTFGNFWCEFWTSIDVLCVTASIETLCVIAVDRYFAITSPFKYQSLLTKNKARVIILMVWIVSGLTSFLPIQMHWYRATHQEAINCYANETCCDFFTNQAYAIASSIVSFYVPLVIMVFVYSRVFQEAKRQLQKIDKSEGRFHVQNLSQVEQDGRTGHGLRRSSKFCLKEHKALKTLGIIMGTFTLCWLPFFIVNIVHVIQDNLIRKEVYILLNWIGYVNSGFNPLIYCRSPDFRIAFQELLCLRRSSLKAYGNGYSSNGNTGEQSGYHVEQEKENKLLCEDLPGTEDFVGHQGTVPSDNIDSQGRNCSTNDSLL
structure (smiles),measurement,setting,value
Cc1cccc(OC[C@@H](O)CNC(C)C[18F])c1 (stereo partly drawn),logD,[1],1.68
same,Drug uptake,[2],0.75 % ID/g
same,Drug uptake,[3],0.91 % ID/g
same,Drug uptake,[4],0.97 % ID/g
same,Drug uptake,[5],1.21 % ID/g
same,Drug uptake,[6],1.12 % ID/g
same,Drug uptake,[7],1.03 % ID/g
same,Drug uptake,[8],0.77 % ID/g
same,Drug uptake,[9],0.84 % ID/g
same,Drug uptake,[10],0.59 % ID/g
same,Drug uptake,[11],0.18 % ID/g
same,Drug uptake,[12],0.16 % ID/g
same,remaining at 5 min,[13],59.2%
same,remaining at 0.25 h,[14],28.6%
same,remaining at 0.5 h,[15],16.4%
same,remaining at 1 h,[16],11.9%
same,Drug uptake,[17],0.46 % ID/g
same,Drug uptake,[18],0.63 % ID/g
same,Drug uptake,[19],0.26 % ID/g
same,Drug uptake,[20],0.59 % ID/g
same,Drug uptake,[21],0.67 % ID/g
same,Drug uptake,[22],0.62 % ID/g
same,Drug uptake,[23],0.65 % ID/g
same,Drug uptake,[24],0.5 % ID/g
same,Drug uptake,[25],0.5 % ID/g
same,Drug uptake,[26],0.21 % ID/g
same,Drug uptake,[27],0.13 % ID/g
same,Drug uptake,[28],0.21 % ID/g
same,Drug uptake,[29],0.31 % ID/g
same,Drug uptake,[30],0.27 % ID/g
same,Drug uptake,[31],0.3 % ID/g
same,Drug uptake,[32],0.29 % ID/g
same,Drug uptake,[33],0.29 % ID/g
same,Drug uptake,[34],0.22 % ID/g
same,Drug uptake,[35],0.24 % ID/g
same,Drug uptake,[36],0.15 % ID/g
same,Drug uptake,[37],0.18 % ID/g
same,Drug uptake,[38],0.13 % ID/g
same,Drug uptake,[39],0.08 % ID/g
same,Drug uptake,[40],0.12 % ID/g
same,Drug uptake,[41],0.11 % ID/g
same,Drug uptake,[42],0.12 % ID/g
same,Drug uptake,[43],0.11 % ID/g
same,Drug uptake,[44],0.11 % ID/g
same,Drug uptake,[45],0.09 % ID/g
same,Drug uptake,[46],0.1 % ID/g
same,Drug uptake,[47],0.06 % ID/g
same,Drug uptake,[48],0.18 % ID/g
same,Drug uptake,[49],0.08 % ID/g
Cc1cccc(OC[C@H](O)CNC(C)C[18F])c1 (stereo partly drawn),logD,[1],1.79
same,Drug uptake,[2],0.82 % ID/g
same,Drug uptake,[3],1.01 % ID/g
same,Drug uptake,[4],1.04 % ID/g
same,Drug uptake,[5],1.3 % ID/g
same,Drug uptake,[6],1.12 % ID/g
same,Drug uptake,[7],1.19 % ID/g
same,Drug uptake,[8],0.92 % ID/g
same,Drug uptake,[9],0.88 % ID/g
same,Drug uptake,[10],0.51 % ID/g
same,Drug uptake,[11],0.3 % ID/g
same,Drug uptake,[12],0.16 % ID/g
same,remaining at 5 min,[13],61.9%
same,remaining at 0.25 h,[14],25.5%
same,remaining at 0.5 h,[15],12.6%
same,remaining at 1 h,[16],7.7%
same,Drug uptake,[17],0.43 % ID/g
same,Drug uptake,[18],0.6 % ID/g
same,Drug uptake,[19],0.26 % ID/g
same,Drug uptake,[20],0.54 % ID/g
same,Drug uptake,[21],0.59 % ID/g
same,Drug uptake,[22],0.55 % ID/g
same,Drug uptake,[23],0.62 % ID/g
same,Drug uptake,[24],0.46 % ID/g
same,Drug uptake,[25],0.47 % ID/g
same,Drug uptake,[26],0.22 % ID/g
same,Drug uptake,[27],0.13 % ID/g
same,Drug uptake,[28],0.23 % ID/g
same,Drug uptake,[29],0.31 % ID/g
same,Drug uptake,[30],0.26 % ID/g
same,Drug uptake,[31],0.29 % ID/g
same,Drug uptake,[32],0.29 % ID/g
same,Drug uptake,[33],0.3 % ID/g
same,Drug uptake,[34],0.23 % ID/g
same,Drug uptake,[35],0.25 % ID/g
same,Drug uptake,[36],0.15 % ID/g
same,Drug uptake,[37],0.3 % ID/g
same,Drug uptake,[38],0.13 % ID/g
same,Drug uptake,[39],0.08 % ID/g
same,Drug uptake,[40],0.12 % ID/g
same,Drug uptake,[41],0.11 % ID/g
same,Drug uptake,[42],0.12 % ID/g
same,Drug uptake,[43],0.11 % ID/g
same,Drug uptake,[44],0.12 % ID/g
same,Drug uptake,[45],0.09 % ID/g
same,Drug uptake,[46],0.1 % ID/g
same,Drug uptake,[47],0.07 % ID/g
same,Drug uptake,[48],0.25 % ID/g
same,Drug uptake,[49],0.07 % ID/g
Cc1cccc(OC[11C@@H](O)CNC(C)C)c1,logD,[1],0.2
CC(C)NCC(O)COc1cccc2[nH]c3ccccc3c12 (stereo not drawn) [CARAZOLOL],logD,[1],1.36
Cc1cccc(OC[C@@H](O)CNC(C)C)c1 [(S)-TOLIPROLOL],Kd,[50],0.38 nM
same,Kd,[51],1.2 nM
CC(CF)NCC(O)COc1cccc2[nH]c3ccccc3c12 (stereo not drawn) [FLUOROCARAZOLOL],logD,[1],2.2
